# Key:
# human TLR7 = human TLR7 (Homo sapiens (Human), UniProt Q9NYK1); experiment: TLR7 inhibition reporter assay (HEK-Blue SEAP reporter, gardiquimod stimulation); assay type: cell-based; details: HEK-Blue cells overexpressing human TLR7, gardiquimod 7.5 μM
# human TLR8 = human TLR8 (Homo sapiens (Human), UniProt Q9NR97); experiment: TLR8 inhibition reporter assay (HEK-Blue SEAP reporter, R848 stimulation); details: read-out: TLR8 IC50; HEK-Blue cells overexpressing human TLR8, R848 15.9 μM, SEAP reporter;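 also: SEAP driven by IFN-β minimal promoter with NF-κB and AP-1 sites, 22 h incubation, compounds 0.05 nM–50 µM, inhibition scaled between agonist plus DMSO and reference inhibitor wells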
# Method: (§1) HEK-Blue™-cells (Invivogen) overexpressing human TLR7, TLR8 or TLR9 receptors were used for screening inhibitors of these receptors using an inducible SEAP (secreted embryonic alkaline phosphatase) reporter gene under the control of the IFN-β minimal promoter fused to five NF-κB and AP-1-binding sites. Briefly, cells are seeded into Greiner 384 well plates (15000 cells per well for TLR7, 20,000 for TLR8 and 25,000 for TLR9) and then treated with test compounds in DMSO to yield a final dose response concentration range of 0.05 nM-50 μM. After a 30 minute compound pre-treatment at room temperature, the cells are then stimulated with a TLR7 ligand (gardiquimod at a final concentration of 7.5 μM), TLR8 ligand (R848 at a final concentration of 15.9 μM) or TLR9 ligand (ODN2006 at a final concentration of 5 nM) to activate NF-κB and AP-1 which induce the production of SEAP. After a 22 hour incubation at 37° C., 5% CO2, SEAP levels are determined with the addition of HEK-Blue™ Detection reagent (Invivogen), a cell culture medium that allows for detection of SEAP, according to manufacturer's specifications.
# human TLR9 = human TLR9 (Homo sapiens (Human), UniProt Q9NR96); experiment: TLR9 inhibition reporter assay (HEK-Blue SEAP reporter, ODN2006 stimulation); details: read-out: TLR9 IC50; HEK-Blue cells overexpressing human TLR9, ODN2006 5 nM, SEAP reporter;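 also: SEAP reporter under IFN-β minimal promoter with five NF-κB and AP-1 sites, 22 h incubation, compounds 0.05 nM–50 µM, inhibition relative to agonist plus DMSO versus known inhibitor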
# Sequence of human TLR9 (Q9NR96 26-1032): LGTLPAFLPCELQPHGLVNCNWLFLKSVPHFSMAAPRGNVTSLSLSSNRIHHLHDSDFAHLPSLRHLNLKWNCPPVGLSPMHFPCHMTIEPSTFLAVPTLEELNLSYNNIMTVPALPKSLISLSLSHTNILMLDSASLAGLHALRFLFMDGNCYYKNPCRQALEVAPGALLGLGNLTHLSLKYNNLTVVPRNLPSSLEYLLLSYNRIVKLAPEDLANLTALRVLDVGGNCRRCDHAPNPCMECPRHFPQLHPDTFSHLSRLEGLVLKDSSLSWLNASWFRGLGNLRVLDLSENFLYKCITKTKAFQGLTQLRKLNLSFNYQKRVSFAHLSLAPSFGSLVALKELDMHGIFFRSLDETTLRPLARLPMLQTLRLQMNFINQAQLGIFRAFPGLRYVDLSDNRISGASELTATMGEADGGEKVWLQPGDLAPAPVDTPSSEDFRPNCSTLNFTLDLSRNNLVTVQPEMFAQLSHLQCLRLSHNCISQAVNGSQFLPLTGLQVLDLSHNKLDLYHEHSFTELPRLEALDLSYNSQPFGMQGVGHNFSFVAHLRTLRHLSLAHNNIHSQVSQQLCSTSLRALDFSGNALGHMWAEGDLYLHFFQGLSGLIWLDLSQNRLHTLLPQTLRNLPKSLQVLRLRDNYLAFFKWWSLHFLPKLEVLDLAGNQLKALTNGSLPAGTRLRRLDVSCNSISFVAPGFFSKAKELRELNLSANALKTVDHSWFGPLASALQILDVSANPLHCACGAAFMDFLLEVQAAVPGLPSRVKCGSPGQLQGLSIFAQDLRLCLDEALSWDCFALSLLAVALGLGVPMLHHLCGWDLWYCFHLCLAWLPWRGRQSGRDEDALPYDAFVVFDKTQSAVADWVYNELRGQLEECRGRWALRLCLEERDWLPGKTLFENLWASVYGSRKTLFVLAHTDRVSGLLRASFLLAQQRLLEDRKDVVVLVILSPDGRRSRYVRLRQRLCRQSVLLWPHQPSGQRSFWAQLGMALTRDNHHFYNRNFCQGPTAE
# Method: as §1
# Sequence of human TLR8 (Q9NR97 27-1041): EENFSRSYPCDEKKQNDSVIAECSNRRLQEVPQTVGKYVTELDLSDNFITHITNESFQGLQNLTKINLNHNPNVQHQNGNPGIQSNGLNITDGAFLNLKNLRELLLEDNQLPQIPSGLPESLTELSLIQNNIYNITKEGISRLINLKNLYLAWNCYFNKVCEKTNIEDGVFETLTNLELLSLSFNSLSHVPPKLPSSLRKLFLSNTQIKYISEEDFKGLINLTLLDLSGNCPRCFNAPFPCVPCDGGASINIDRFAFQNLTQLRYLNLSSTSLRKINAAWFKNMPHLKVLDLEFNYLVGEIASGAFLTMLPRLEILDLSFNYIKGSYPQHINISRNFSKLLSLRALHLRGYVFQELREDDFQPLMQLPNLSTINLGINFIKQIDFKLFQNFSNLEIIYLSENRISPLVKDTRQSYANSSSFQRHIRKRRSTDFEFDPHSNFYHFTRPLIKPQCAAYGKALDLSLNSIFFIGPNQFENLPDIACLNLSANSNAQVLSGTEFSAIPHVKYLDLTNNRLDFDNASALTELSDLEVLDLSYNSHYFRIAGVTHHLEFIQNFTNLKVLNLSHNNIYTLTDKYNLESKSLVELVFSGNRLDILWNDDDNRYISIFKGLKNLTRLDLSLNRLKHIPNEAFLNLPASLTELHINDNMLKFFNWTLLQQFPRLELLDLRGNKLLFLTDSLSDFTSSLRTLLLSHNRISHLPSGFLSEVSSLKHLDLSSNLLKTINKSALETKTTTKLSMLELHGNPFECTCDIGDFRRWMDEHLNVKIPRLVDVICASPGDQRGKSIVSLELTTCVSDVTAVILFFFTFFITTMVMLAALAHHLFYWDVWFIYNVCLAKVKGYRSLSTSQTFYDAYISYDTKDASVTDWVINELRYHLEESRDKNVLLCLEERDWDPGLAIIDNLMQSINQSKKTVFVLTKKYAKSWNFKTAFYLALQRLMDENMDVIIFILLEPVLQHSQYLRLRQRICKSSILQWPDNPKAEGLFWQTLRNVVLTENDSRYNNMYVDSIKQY
# Sequence of human TLR7 (Q9NYK1 27-1049): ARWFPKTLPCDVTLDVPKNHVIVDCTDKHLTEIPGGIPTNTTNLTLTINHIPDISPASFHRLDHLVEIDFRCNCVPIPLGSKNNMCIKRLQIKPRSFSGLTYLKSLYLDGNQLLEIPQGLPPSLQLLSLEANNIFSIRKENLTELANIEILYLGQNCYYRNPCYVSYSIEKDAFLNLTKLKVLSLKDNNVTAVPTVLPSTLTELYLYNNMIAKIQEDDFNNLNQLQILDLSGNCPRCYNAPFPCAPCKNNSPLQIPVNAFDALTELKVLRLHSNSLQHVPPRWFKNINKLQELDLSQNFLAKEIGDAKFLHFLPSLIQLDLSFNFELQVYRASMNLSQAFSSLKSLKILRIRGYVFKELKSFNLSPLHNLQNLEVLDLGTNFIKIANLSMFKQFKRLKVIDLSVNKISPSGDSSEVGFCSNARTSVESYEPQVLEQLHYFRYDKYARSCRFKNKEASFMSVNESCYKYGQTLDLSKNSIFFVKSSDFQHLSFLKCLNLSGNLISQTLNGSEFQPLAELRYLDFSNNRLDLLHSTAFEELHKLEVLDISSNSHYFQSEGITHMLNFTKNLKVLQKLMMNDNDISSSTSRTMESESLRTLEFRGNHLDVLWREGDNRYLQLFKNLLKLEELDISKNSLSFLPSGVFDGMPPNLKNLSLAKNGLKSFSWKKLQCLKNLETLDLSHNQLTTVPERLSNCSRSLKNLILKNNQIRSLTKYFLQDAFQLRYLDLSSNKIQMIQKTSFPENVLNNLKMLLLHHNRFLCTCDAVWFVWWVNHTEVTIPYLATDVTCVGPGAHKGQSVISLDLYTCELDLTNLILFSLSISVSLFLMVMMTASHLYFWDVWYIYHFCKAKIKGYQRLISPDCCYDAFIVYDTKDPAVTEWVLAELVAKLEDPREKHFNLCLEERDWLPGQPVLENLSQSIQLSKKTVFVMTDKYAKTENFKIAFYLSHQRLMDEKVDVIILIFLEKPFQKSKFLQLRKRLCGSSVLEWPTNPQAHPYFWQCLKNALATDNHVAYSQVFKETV
SMILES,IC50 (human TLR7) [nM],IC50 (human TLR8) [nM],IC50 (human TLR9) [nM]
"CCc1c(-c2ccc(OC)c(OC)c2)[nH]c2ccc(C(=O)N3CC[C@H](N(C)C)C3)cc12 [Example 30, (S)-(2-(3,4-dimethoxyphenyl)-3-ethyl-1H-indol-5-yl)(3-(dimethylamino)pyrrolidin-1-yl)methanone]",632,191,4160
"CCc1c(-c2ccc(OC)c(OC)c2)[nH]c2ccc(C(=O)N3CCCC(C)(C)C3)cc12 [Example 32, (2-(3,4-dimethoxyphenyl)-3-ethyl-1H-indol-5-yl)(3,3-dimethylpiperidin-1-yl)methanone]",1980,545,5100
"CCc1c(-c2ccc(OC)c(OC)c2)[nH]c2ccc(C(=O)N3CCCC(C(=O)N(CC)CC)C3)cc12 (stereo not drawn) [Example 33, 1-(2-(3,4-dimethoxyphenyl)-3-ethyl-1H-indole-5-carbonyl)-N,N-diethylpiperidine-3-carboxamide]",1120,897,16800
"CCc1c(-c2ccc(OC)c(OC)c2)[nH]c2ccc(C(=O)N3CCC(C(N)=O)CC3)cc12 [Example 34, 1-(2-(3,4-dimethoxyphenyl)-3-ethyl-1H-indole-5-carbonyl)piperidine-4-carboxamide]",1180,218,> 50000
"CCc1c(-c2ccc(OC)c(OC)c2)[nH]c2ccc(C(=O)N3CCCN(C(C)=O)CC3)cc12 [Example 35, 1-(4-(2-(3,4-dimethoxyphenyl)-3-ethyl-1H-indole-5-carbonyl)-1,4-diazepan-1-yl)ethan-1-one]",595,190,> 50000
"CCc1c(-c2ccc(OC)c(OC)c2)[nH]c2ccc(C(=O)N3CCN(CCc4ccccc4)CC3)cc12 [Example 37, (2-(3,4-dimethoxyphenyl)-3-ethyl-1H-indol-5-yl)(4-phenethylpiperazine-1-yl)methanone]",1300,14,9940
"CCc1c(-c2ccc(OC)c(OC)c2)[nH]c2ccc(C(=O)N3CCN(C(C)C)CC3)cc12 [Example 38, (2-(3,4-dimethoxyphenyl)-3-ethyl-1H-indol-5-yl)(4-isopropylpiperazin-1-yl)methanone]",299,1.2,5270
"CCc1c(-c2ccc(OC)c(OC)c2)[nH]c2ccc(C(=O)N3CCN(CC)CC3)cc12 [Example 39, (2-(3,4-dimethoxyphenyl)-3-ethyl-1H-indol-5-yl)(4-ethylpiperazin-1-yl)methanone]",367,2.2,4410
"CCc1c(-c2ccc(OC)c(OC)c2)[nH]c2ccc(C(=O)N3CCN(CCO)CC3)cc12 [Example 40, (2-(3,4-dimethoxyphenyl)-3-ethyl-1H-indol-5-yl)(4-(2-hydroxyethyl)piperazin-1-yl)methanone]",545,5.7,8700
"CCc1c(-c2ccc(OC)c(OC)c2)[nH]c2ccc(C(=O)N3CCN(CCOC)CC3)cc12 [Example 41, (2-(3,4-dimethoxyphenyl)-3-ethyl-1H-indol-5-yl)(4-(2-methoxyethyl)piperazin-1-yl)methanone]",1140,12,26700
"CCc1c(-c2ccc(OC)c(OC)c2)[nH]c2ccc(C(=O)N3CCN(CCN4CCOCC4)CC3)cc12 [Example 42, (2-(3,4-dimethoxyphenyl)-3-ethyl-1H-indol-5-yl)(4-(2-morpholinoethyl)piperazin-1-yl)methanone]",751,15,9670
"CCc1c(-c2ccc(OC)c(OC)c2)[nH]c2ccc(C(=O)NCc3ccco3)cc12 [Example 43, 2-(3,4-dimethoxyphenyl)-3-ethyl-N-(furan-2-ylmethyl)-1H-indole-5-carboxamide]",2500,572,> 50000
"CCc1c(-c2ccc(OC)c(OC)c2)[nH]c2ccc(C(=O)NCc3ccccn3)cc12 [Example 44, 2-(3,4-dimethoxyphenyl)-3-ethyl-N-(pyridin-2-ylmethyl)-1H-indole-5-carboxamide]",1940,412,44800
"CCc1c(-c2ccc(OC)c(OC)c2)[nH]c2ccc(C(=O)NCc3csc(-c4ccccc4)n3)cc12 [Example 45, 2-(3,4-dimethoxyphenyl)-3-ethyl-N-((2-phenylthiazol-4-yl)methyl)-1H-indole-5-carboxamide]",2240,1040,> 50000
"CCc1c(-c2ccc(OC)c(OC)c2)[nH]c2ccc(C(=O)NCc3ccc(N4CCNCC4)cc3)cc12 [Example 46, 2-(3,4-dimethoxyphenyl)-3-ethyl-N-(4-(piperazin-1-yl)benzyl)-1H-indole-5-carboxamide]",391,60,931
"CCc1c(-c2ccc(OC)c(OC)c2)[nH]c2ccc(C(=O)NCCN3CCCC3)cc12 [Example 48, 2-(3,4-dimethoxyphenyl)-3-ethyl-N-(2-(pyrrolidin-1-yl)ethyl)-1H-indole-5-carboxamide]",144,4.8,2700
"CCc1c(-c2ccc(OC)c(OC)c2)[nH]c2ccc(C(=O)NCc3ccc(N)cc3)cc12 [Example 52, N-(4-aminobenzyl)-2-(3,4-dimethoxyphenyl)-3-ethyl-1H-indole-5-carboxamide]",2380,243,> 50000
"CCc1c(-c2ccc(OC)c(OC)c2)[nH]c2ccc(C(=O)NCCCN3CCCCC3)cc12 [Example 53, 2-(3,4-dimethoxyphenyl)-3-ethyl-N-(3-(piperidin-1-yl)propyl)-1H-indole-5-carboxamide]",258,8.1,2000
"CCc1c(-c2ccc(OC)c(OC)c2)[nH]c2ccc(C(=O)NCCC3CCCN3C)cc12 (stereo not drawn) [Example 54, 2-(3,4-dimethoxyphenyl)-3-ethyl-N-(2-(1-methylpyrrolidin-2-yl)ethyl)-1H-indole-5-carboxamide]",206,12,1810
"CCc1c(-c2ccc(OC)c(OC)c2)[nH]c2ccc(C(=O)NCCCN3CCN(C)CC3)cc12 [Example 55, 2-(3,4-dimethoxyphenyl)-3-ethyl-N-(3-(4-methylpiperazin-1-yl)propyl)-1H-indole-5-carboxamide]",954,16,2090
"CCc1c(-c2ccc(OC)c(OC)c2)[nH]c2ccc(C(=O)N3CCC(N4CCCCC4)CC3)cc12 [Example 56, [1,4′-bipiperidin]-1′-yl(2-(3,4-dimethoxyphenyl)-3-ethyl-1H-indol-5-yl)methanone]",112,13,2190
"CCc1c(-c2ccc(OC)c(OC)c2)[nH]c2ccc(C(=O)N3CCN(c4ncccn4)CC3)cc12 [Example 57, (2-(3,4-dimethoxyphenyl)-3-ethyl-1H-indol-5-yl)(4-(pyrimidin-2-yl)piperazin-1-yl)methanone]",577,218,> 50000
"CCc1c(-c2ccc(OC)c(OC)c2)[nH]c2ccc(C(=O)N3CCN(C(=O)c4ccco4)CC3)cc12 [Example 60, (2-(3,4-dimethoxyphenyl)-3-ethyl-1H-indol-5-yl)(4-(furan-2-carbonyl)piperazin-1-yl)methanone]",206,115,> 50000
"CCc1c(-c2ccc(OC)c(OC)c2)[nH]c2ccc(C(=O)N3CCN(c4ccc(C(F)(F)F)cn4)CC3)cc12 [Example 61, (2-(3,4-dimethoxyphenyl)-3-ethyl-1H-indol-5-yl)(4-(5-(trifluoromethyl)pyridin-2-yl)piperazin-1-yl)methanone]",4120,1620,10200
"CCc1c(-c2ccc(OC)c(OC)c2)[nH]c2ccc(C(=O)N3CCNC(=O)C3)cc12 [Example 62, 4-(2-(3,4-dimethoxyphenyl)-3-ethyl-1H-indole-5-carbonyl)piperazin-2-one]",493,381,> 50000
"CCc1c(-c2ccc(OC)c(OC)c2)[nH]c2ccc(C(=O)N3CCC(n4c(=O)[nH]c5ccccc54)CC3)cc12 [Example 63, 1-(1-(2-(3,4-dimethoxyphenyl)-3-ethyl-1H-indole-5-carbonyl)piperidin-4-yl)-1,3-dihydro-2H-benzo[d]imidazol-2-one]",801,464,13600
"CCc1c(-c2ccc(OC)c(OC)c2)[nH]c2ccc(C(=O)N3CCCN(c4ncccn4)CC3)cc12 [Example 64, (2-(3,4-dimethoxyphenyl)-3-ethyl-1H-indol-5-yl)(4-(pyrimidin-2-yl)-1,4-diazepan-1-yl)methanone]",1280,2190,16600
"CCc1c(-c2ccc(OC)c(OC)c2)[nH]c2ccc(C(=O)N3CCCN(c4ccccn4)CC3)cc12 [Example 65, (2-(3,4-dimethoxyphenyl)-3-ethyl-1H-indol-5-yl)(4-(pyridin-2-yl)-1,4-diazepan-1-yl)methanone]",1210,1630,7240
"CCc1c(-c2ccc(OC)c(OC)c2)[nH]c2ccc(C(=O)N3CCc4ccccc43)cc12 [Example 66, (2-(3,4-dimethoxyphenyl)-3-ethyl-1H-indol-5-yl)(indolin-1-yl)methanone]",3940,1170,> 50000
"CCc1c(-c2ccc(OC)c(OC)c2)[nH]c2ccc(C(=O)NC(CO)CO)cc12 [Example 67, N-(1,3-dihydroxypropan-2-yl)-2-(3,4-dimethoxyphenyl)-3-ethyl-1H-indole-5-carboxamide]",1770,412,> 50000

# Reference: patent publication US11420973B2, “Amide substituted indole compounds useful as TLR inhibitors” (BRISTOL-MYERS SQUIBB COMPANY, priority 2017, dated 2022)
